Laboratory results: PMC10974533, “Cationicity Enhancement on the Hydrophilic Face of Ctriporin Significantly Reduces Its Hemolytic Activity and Improves the Antimicrobial Activity against Antibiotic-Resistant ESKAPE Pathogens” (Toxins, 2024)
Where a SMILES comes first, the peptide text is derived from it.

Experiments:
Assay type in all cases: cell-based
[1] = test system: human red blood cells (hRBC); test: Hemolytic activity determination; settings: 2% (v/v) hRBC, 37 °C, 1 h; for Hemolysis% at 256 μg/mL: 256 μg/mL peptide, OD540, 1% Triton X-100 = 100%, average ± standard error of three independent experiments; for curve of hemolysis% vs. peptide concentration (Figure 2): 0–512 μg/mL peptide, compared in words
Experimental: Figure 2 Hemolytic activities of Ctriporin and its analogs against human red blood cells (hRBC). Hemolytic activities of Ctriporin (solid circle), CM1 (open circle), CM2 (open square), CM3 (upward triangle), CM4 (downward triangle), CM5 (half solid circle), CM6 (half solid square), and CM7 (half solid triangle), were measured against 2% (v/v) human red blood cells. The peptide concentrations are 0, 2, 4, 8, 16, 32, 64, 128, 256, and 512 μg/mL. The cells treated with 1% Triton X-100 were treated as 100% hemolysis. All experiments were repeated three times, and the data shown are the average ± standard error.
The hemolytic activities of the peptides were determined against human red blood cells (hRBCs). As described, sodium citrate-anticoagulated hRBCs were washed three times with 0.9% sodium chloride and diluted to a final concentration of 4% (v/v). Then, an equal volume of hRBC solutions was mixed with an equal volume of each peptide in a series of concentrations (0, 2, 4, 8, 16, 32, 64, 128, 256, and 512 μg/mL). After co-incubation at 37 °C for 1 h, the degree of hemolysis of the peptides was determined by detecting the release of hemoglobin from the damaged hRBCs by measuring the optical density at 540 nm (OD540). hRBCs in 0.9% sodium chloride and 1% Triton X-100 were considered 0% and 100% hemolysis, respectively. The results shown are the average ± standard error of data derived from three independent experiments. The percent hemolysis was calculated according to the following equation [53, 54]:Hemolysis (%) = 100 × (Asample − Ablank)/(Apositive − Ablank)

standard ESKAPE strains = settings: broth dilution (CLSI), MHB, 37 °C, 16–20 h; range over all standard strains
Experimental: The ESKAPE pathogens represent the main threat to public health concerning antimicrobial resistance. Therefore, we first evaluated the antimicrobial activities of Ctriporin and its analogs against the standard ESKAPE strains. The minimum inhibitory concentration (MIC) was chosen as the index for the evaluation of each peptide’s activity. […] Note that the MICs of CM4 and CM7 are 4–32 and 8–32 μg/mL, respectively, indicating the existence of significant bacterial species deviations for the antimicrobial activity of these peptides. In addition, the replacement of specific residues, especially Pro^7, may harm the antimicrobial activities of the peptide.
(§1) The standard strains, including S. aureus ATCC29213 and ATCC25923, E. faecalis ATCC29212, E. coli ATCC25922 and ATCC35218, A. baumannii ATCC19606, K. pneumoniae ATCC700603, and P. aeruginosa ATCC27853, were purchased from the China Center of Type Culture Collection (CCTCC). The clinical strains of the ESKAPE pathogens were isolated from the affiliated hospitals of Hubei University of Medicine. All of them were stored at −80 °C before use. The drug sensitivities of the clinical strains were determined by the Kirby–Bauer test.
(§2) The MICs were determined using the broth dilution method according to the guidelines of the Clinical and Laboratory Standards Institute (CLSI), as described in the previous studies. Briefly, the bacterial cells were incubated in Mueller–Hinton broth (MHB, Oxoid, Basingstoke, UK) at 37 °C and 150 rpm to the mid-growth phase and diluted to achieve a final concentration of 5 × 10^5 colony-forming units per milliliter (CFU/mL). Then, the cells were mixed with each peptide in different concentrations (1, 2, 4, 8, 16, 32, and 64 μg/mL). […] All experiments were repeated at least three times.

E. coli ATCC35218 = test: MIC, broth dilution, standard strain; settings: broth dilution (CLSI), MHB, 37 °C, 16–20 h
Experimental: as §1, §2

S. aureus ATCC25923 = test: MIC, broth dilution, standard strain; settings: broth dilution (CLSI), MHB, 37 °C, 16–20 h
Experimental: as §1, §2

P. aeruginosa ATCC27853 = test: MIC, broth dilution, standard strain; settings: broth dilution (CLSI), MHB, 37 °C, 16–20 h
Experimental: as §1, §2

S. aureus ATCC29213 = test: MIC, broth dilution, standard strain; settings: broth dilution (CLSI), MHB, 37 °C, 16–20 h
Experimental: as §1, §2

K. pneumoniae ATCC700603 = test: MIC, broth dilution, standard strain; settings: broth dilution (CLSI), MHB, 37 °C, 16–20 h
Experimental: as §1, §2

E. coli ATCC25922 = test: MIC, broth dilution, standard strain; settings: broth dilution (CLSI), MHB, 37 °C, 16–20 h
Experimental: as §1, §2

E. faecium ATCC29212 = test: MIC, broth dilution, standard strain; settings: broth dilution (CLSI), MHB, 37 °C, 16–20 h
Experimental: as §1, §2

A. baumannii ATCC19606 = test: MIC, broth dilution, standard strain; settings: broth dilution (CLSI), MHB, 37 °C, 16–20 h
Experimental: as §1, §2

[2] = 5 × 10^5 CFU/mL, OD630, repeated at least three times

Row | Compound | Hemolysis% at 256 μg/mL [1] | MICs against the ESKAPE pathogens (range over the standard strains of Table 2) (standard ESKAPE strains) | MICs (E. coli ATCC35218; [2]) | MICs (E. coli ATCC35218; value in parentheses) | MICs (S. aureus ATCC25923; [2]) | MICs (S. aureus ATCC25923; value in parentheses) | MICs (P. aeruginosa ATCC27853; [2]) | MICs (P. aeruginosa ATCC27853; value in parentheses) | MICs (S. aureus ATCC29213; [2]) | MICs (S. aureus ATCC29213; value in parentheses) | MICs (K. pneumoniae ATCC700603; [2]) | MICs (K. pneumoniae ATCC700603; value in parentheses) | MICs (E. coli ATCC25922; [2]) | MICs (E. coli ATCC25922; value in parentheses) | MICs (E. faecium ATCC29212; [2]) | MICs (E. faecium ATCC29212; value in parentheses) | MICs (A. baumannii ATCC19606; [2]) | MICs (A. baumannii ATCC19606; value in parentheses) | curve of hemolysis% vs. peptide concentration (Figure 2) [1]
1 | CC[C@H](C)[C@H](NC(=O)[C@H](C)NC(=O)[C@H](CCCCN)NC(=O)[C@@H]1CCCN1C(=O)[C@@H](NC(=O)[C@H](CC(C)C)NC(=O)[C@H](CCCCN)NC(=O)[C@H](Cc1c[nH]c2ccccc12)NC(=O)[C@H](CC(C)C)NC(=O)[C@@H](N)Cc1ccccc1)[C@@H](C)CC)C(=O)N[C@@H](CCCCN)C(=O)N[C@@H](C)C(=O)N[C@H](C(=O)N[C@H](C(=O)N[C@@H](CO)C(=O)N[C@@H](CC(C)C)C(=O)N[C@H](C(=O)N[C@@H](CCCCN)C(=O)N[C@@H](CCCCN)C(N)=O)[C@@H](C)CC)[C@@H](C)O)C(C)C [CM3] (H-FLWKLIPKAIKAVTSLIKK-NH2; N-terminus assumed) | 89.1 ± 12.1% | 4 to 8 µg/mL | 4 µg/mL | 1.8 µM | 4 µg/mL | 1.8 µM | 8 µg/mL | 3.6 µM | 4 µg/mL | 1.8 µM | 8 µg/mL | 3.6 µM | 4 µg/mL | 1.8 µM | 4 µg/mL | 1.8 µM | 4 µg/mL | 1.8 µM | –
2 | CC[C@H](C)[C@H](NC(=O)[C@H](C)NC(=O)[C@H](CCCCN)NC(=O)[C@@H]1CCCN1C(=O)[C@@H](NC(=O)[C@H](CC(C)C)NC(=O)[C@H](CCCCN)NC(=O)[C@H](Cc1c[nH]c2ccccc12)NC(=O)[C@H](CC(C)C)NC(=O)[C@@H](N)Cc1ccccc1)[C@@H](C)CC)C(=O)N[C@@H](CCCCN)C(=O)N[C@@H](CCCCN)C(=O)N[C@H](C(=O)N[C@H](C(=O)N[C@@H](CO)C(=O)N[C@@H](CC(C)C)C(=O)N[C@H](C(=O)N[C@@H](CCCCN)C(=O)N[C@@H](CCCCN)C(N)=O)[C@@H](C)CC)[C@@H](C)O)C(C)C [CM4] (H-FLWKLIPKAIKKVTSLIKK-NH2; N-terminus assumed) | 14.0 ± 4.7% | 4 to 32 µg/mL | 16 µg/mL | 7.1 µM | 8 µg/mL | 3.6 µM | 16 µg/mL | 7.1 µM | 4 µg/mL | 1.8 µM | 32 µg/mL | 14.2 µM | 8 µg/mL | 3.6 µM | 16 µg/mL | 7.1 µM | 4 µg/mL | 1.8 µM | decreased dramatically compared with Ctriporin
3 | CC[C@H](C)[C@H](NC(=O)[C@H](C)NC(=O)[C@H](CCCCN)NC(=O)[C@H](CCCCN)NC(=O)[C@@H](NC(=O)[C@H](CC(C)C)NC(=O)[C@H](CCCCN)NC(=O)[C@H](Cc1c[nH]c2ccccc12)NC(=O)[C@H](CC(C)C)NC(=O)[C@@H](N)Cc1ccccc1)[C@@H](C)CC)C(=O)N[C@@H](CCCCN)C(=O)N[C@@H](CCCCN)C(=O)N[C@H](C(=O)N[C@@H](CCCCN)C(=O)N[C@@H](CCCCN)C(=O)N[C@@H](CC(C)C)C(=O)N[C@H](C(=O)N[C@@H](CCCCN)C(=O)N[C@@H](CCCCN)C(N)=O)[C@@H](C)CC)C(C)C [CM7] (H-FLWKLIKKAIKKVKKLIKK-NH2; N-terminus assumed) | 57.5 ± 9.8% | 8 to 32 µg/mL | 16 µg/mL | – | 32 µg/mL | 13.6 µM | 8 µg/mL | 3.4 µM | 32 µg/mL | 13.6 µM | 32 µg/mL | – | 32 µg/mL | 13.6 µM | 32 µg/mL | 13.6 µM | 8 µg/mL | 3.4 µM | positions closely to those of CM3
